From US20100062970A1, “SYNTHESIS OF PROPYL PHENOXY ETHERS AND USE AS DELIVERY AGENTS” (Emisphere Technologies Inc., priority 2006, published 2010) come the findings set out here.

The subject of this test is whole blood glucose. The test is described as follows: In vivo delivery of insulin to fasted rats via oral gavage (whole blood glucose). On the set-up: species or system rat. The following applies: male Sprague-Dawley rats, delivery agent 200 mg/kg with insulin (human recombinant) 0.5 mg/kg. The procedure: Insulin (human recombinant) was obtained from ICN Biomedicals (Aurora, Ohio) as a bulk powder. To prepare stock solutions, insulin was dissolved in deionized water (pH˜6.5) to obtain a concentration of 15 mg/ml. Stock solutions were kept frozen at −20° C. in 1.0-ml aliquots until used. For dosing solutions, delivery agent was dissolved in deionized water to obtain a final concentration of 200 mg/ml. The free acid form of delivery agent was converted to the sodium salt by adding one equivalent of sodium hydroxide. Solutions were vortexed, sonicated, and heated, and if necessary, additional sodium hydroxide was added in μl quantities to achieve uniform solubility. Solutions were adjusted to a pH of 3.5-8.5 by the addition of either hydrochloric acid or sodium hydroxide. Insulin stock (typically 66.7 μls) was then added to the delivery agent solution to obtain a final concentration of 0.5 mg/ml. After solubilization and drug addition, solutions were brought to final volume by the addition of deionized water.
Insulin was administered to male, Sprague-Dawley rats either alone or in combination with an Emisphere delivery agent by oral gavage (PO). Rats were fasted for 18-24 hours prior to dosing. For dosing, a Rusch 8 French catheter was cut to 11 cm in length and adapted to fit a 1-ml syringe. The syringe was filled with dosing solution and the catheter was wiped dry of excess solution. The catheter was inserted into the rat mouth and fed down the esophagus (10.0 cm). The dosing solution was delivered by pressing the syringe plunger while holding the rat in an upright position.
During blood sampling, rats were exposed briefly (˜10 sec) to carbon dioxide until prostrate, immediately prior to each sampling time point. For blood sampling, a 77-mm capillary tube was inserted into the retroorbital sinus. Typically, blood samples were collected prior to dosing (time 0) and at 15, 30, 45, and 60 minutes after dosing. Samples were collected into Capiject® tubes (Terumo Corporation, Tokyo, Japan) containing a clot activator (red top, serum separator tubes). Samples were allowed to clot for ˜20 min at 4° C. After clotting, samples were centrifuged at 10,000 rpm for 4 minutes at 6° C. in order to separate the serum. Serum was collected into eppendorf tubes and frozen at −20° C. until assayed.
In order to determine the pharmacodynamic response, a hand-held glucometer (OneTouch Ultra, LifeScan® (Johnson & Johnson, New Brunswick, N.J.)) was used to measure whole blood glucose after administration of insulin or insulin and delivery agent. Samples were collected either from the retroorbital sinus (see Sample collection and handling: Insulin) or from the tail artery (i.e. tail clip). For tail clipping, the tip of the tail was severed approximately 5 mm from the tip using a scalpel blade. After discarding the first drop of blood, a small sample (˜5-10 μl) was touched to the glucometer test strip (OneTouch Ultra, LifeScan) and a blood glucose reading was generated by the meter. For each subsequent sampling time point, the clot formed at the tip of the tail was broken up and a fresh sample was collected. Typically, samples were collected prior to dosing (time 0) and at 15, 30, 45, and 60 minutes after dosing.
Concentrations of insulin were quantified in rat serum using a sandwich-type ELISA (kit; Diagnostic Systems Laboratories, Inc., Webster, Tex.). The calibrated assay range was 12.5-250.0 μlU/mL. Serum from rats was obtained internally from stock animals and used to prepare calibration standards and low and high quality control samples (LQC, HQC). The low and high quality control samples for the second curve were prepared at 30 and 150 μlU/mL, respectively. Calibration standards were prepared fresh daily and quality control samples were stored at a nominal temperature of −20° C. Concentration values (test samples) were read from the standard curve, averaged for each time point (n=5), and plotted as mean serum concentration of insulin (±SEM) versus time. […]
As for `O=C(O)CCOc1ccccc1Cl` [Compound 1, 3-2-Chloro-phenoxy-propionic acid], the “% Glucose Cmin (Rat)” value was −47.0%.

Consider `Cc1ccc(OCCC(=O)O)cc1C` [Compound 2, 3-(3,4-Dimethyl-phenoxy)-propionic acid], for which the “% Glucose Cmin (Rat)” value is recorded as −48.2%.

Turning to `Cc1cc(C)cc(OCCC(=O)O)c1` [Compound 3, 3-(3,5-Dimethyl-phenoxy)-propionic acid], the “% Glucose Cmin (Rat)” value is recorded as −16.6%.

Consider `Cc1ccc(C)c(OCCC(=O)O)c1` [Compound 4, 3-(2,5-Dimethyl-phenoxy)-propionic acid], for which the “% Glucose Cmin (Rat)” value is −39.6%.

Regarding `Cc1cccc(OCCC(=O)O)c1C` [Compound 5, 3-(2,3-Dimethyl-phenoxy)-propionic acid], the “% Glucose Cmin (Rat)” value is reported as −22.2%.

Take `Cc1cccc(OCCC(=O)O)c1` [Compound 6, 3-m-Tolyloxy-propionic acid]: the “% Glucose Cmin (Rat)” value is reported as −29.3%.

Take `Cc1cccc(C)c1OCCC(=O)O` [Compound 7, 3-(2,6-Dimethyl-phenoxy)-propionic acid]: the “% Glucose Cmin (Rat)” value was −42.1%.

In the case of `Cc1ccccc1OCCC(=O)O` [Compound 8, 3-o-Tolyloxy-propionic acid], the “% Glucose Cmin (Rat)” value is listed as −24.2%.

`Cc1ccc(OCCC(=O)O)c(C)c1` [Compound 9, 3-(2,4-Dimethyl-phenoxy)-propionic acid]: the “% Glucose Cmin (Rat)” value is reported as −40.3%.
